Experimental data published in patent US8278265B2, “Methods, kits and compositions comprising crotamine” (Fundacao de Amparo a Pesquisa do Estado de Sao Paulo—FAPESP, priority 2005, dated 2012).

Key:
[1] = test system: embryonic stem cells (ES) of mice; test: Embriotoxicity assay: cytotoxic effects on embryonic stem cells; format: cell-based; conditions: submicromolar concentrations, between 10^−6 and 10^−7 M; five days
Procedure: Bearing in mind that crotamine is a toxin, cytotoxic effects were tested on embryonic stem cells (ES) of mice which are non-differentiated cells, derived from the embryonic bud of blastocytes, and have as their main characteristic their pluripotence, an ability to differentiate to different types of tissues.
Such cells were chosen bearing in mind the usefulness of crotamine application for gene therapy (by means of stem cells) and transgenesis, as a carrier of other molecules to within cells. Four different concentrations were tested for five days. […] The assay was as follows.
Embryonic bodies (EBs) were obtained by the hanging drop method, as described above, using culture medium containing crotamine at various concentrations (100 μM to 0.1 μM), changing the medium every two to three days. To analyze the crotamine location in EBs under development, crotamine was substituted with crotamine linked to Cy3 (Cy3-crotamine) during the final 24 hours of incubation. Compact murine morulae (8-16 cells) were obtained from the oviduct and cultivated for 24 hours at 37° C. in 5% CO2, in individual microwells of V-bottom plates (Costar) with […] microwells in M16 medium (supplier: Sigma) and Cy3-crotamine (1-0.1 μM). After 24 hours of culture, normally developed blastocyst numbers were compared within the control and the experimental group.

[2] = test system: Murine pluripotent embryonic stem cells; test: In vitro incorporation of Cy3-crotamine in pluripotent embryonic stem cells; format: cell-based; conditions: FIG. 2D and E
Procedure: Embrionary stem cells (ES) from mice, line USP-1 (Soukoyan, M. A., Kerkis, A. Y., Mello, M. R. B., Kerkis, I. E., Visintin, J. A., Pereira, L. V. (2002), Establishment of New Murine Embryonic Stem Cell Lines for the Generation of Mouse Models of Human Genetic Diseases, Braz. J. Med. Biol. Res. 35, 535-542) in the passage 8-10 were cultured on a layer of γ-irradiated embrionary fibroblasts of mice, kept in DMEM (Gibco, U.S.A.), supplemented with 15% FCS (Gibco, U.S.A.), 1 mM sodium piruvate, 1% non-essential amino acids, 0.1 mM β-mercaptoethanol and 1×103 U/ml murine Leukemia Inhibitor Factor (LIF) (ESGRO-LIF, Gibco). Human lymphoblastoids and primary fibroblasts were cultivated in DMEM and in RPMI, respectively, supplemented with 10% FCS with no antibiotics. Cultures were kept under humid atmosphere at 37° C. and 5% CO2.
In vitro assay: Semiconffluent cultures of pluripotent and differentiation ES cells (homogeneous cell population), as well as other cell cultures of normal and tumor origin, were kept in small laminar slides placed in 24-well plates containing appropriate culture medium. Cells were incubated for 2-3 minutes to 72 hours in the presence of Cy3-crotamine, under concentrations between 10 μM and 0.01 μM, or as control, just in the presence of the dye agent Cy3 diluted in 1 ml PBS (control). […]

plasmid DNA = test: Peptide-DNA interaction by circular dichroism; format: binding; conditions: molar ratio 200:1 and 1:1 (crotamine:DNA), absence and presence of 150 mM NaCl
Procedure: Circular dichroism spectra were taken in a spectropolarymeter JASCO 810 with a Peltier system for temperature control. The device is regularly calibrated with recrystallized d-10 camphorsulfonic acid. Standards used for the equipment were: wavelength range 190-260 nm; sensitivity 100 mdeg; resolution 0.5 nm; response 8 s; reading speed 50 nm/min; 8 accumulations; temperature 37° C. Samples were analysed in a 1 mm optical path cell in 10 mM sodium phosphate buffer, pH 7.4, in the presence or absence of 150 mM NaCl. The crotamine concentration used was 20 μM and plasmid DNA concentration was 0.1 μM. […]

B16F10 cells = test: Tumor treatment with natural crotamine; format: in vivo, Balb/c mouse
Procedure: The cells were maintained in Dulbecco's modified Eagle's cell culture medium (DMEM; Invitrogen, Carlsbad, Calif.) supplemented with 15% fetal calf serum (FCS; Invitrogen). The cells were kept at 37° C. with humidity and 5% CO2. After preparing a cell suspension with about 5×10^6 cells/ml of PBS [phosphate buffered solution], approximately 0.2 ml of this suspension was subcutaneously or endovenously (retroorbital injection) injected into each Balb/c mouse, of 4 to 6 weeks-old with body weight between 16 to 20 g. For negative control, the animals were injected with 0.2 ml of PBS. Before setting up the experiments, the animals were kept under 12 hour light-dark cycle, and were allowed to have water and food ad libitum. All animals were caged and handled under ethical conditions according to international rules of animal care, stated by the International Animal Welfare Recommendations, and in accordance with the Guidelines for the Use of Animals in Biochemical Research
30 minutes after endogenous injection of B16F10 cells, as described above, the animals were treated with 1 μg of crotamine/animal by daily subcutaneous injection, during 21 days.

YKQCHKKGGHCFPKEKICLPPSSDFGKMDCRWRWK CCKKGSG (YKQCHKKGGHCFPKEKICLPPSSDFGKMDCRWRWKCCKKGSG; UniProt Q9PWF3 23-64, looked up) [crotamine]
cytotoxic effect on embryonic stem cells in culture [1]: does not present any cytotoxic effect | signal on cell islets of pluripotent embryonic stem cells [2]: strong signal | interaction with plasmid DNA by circular dichroism spectra (plasmid DNA): presence of interaction | tumor positive animals, 18th day (B16F10 cells; 1 μg/animal daily s.c., day 18): 3 | tumor positive animals, 20th day (B16F10 cells; 1 μg/animal daily s.c., day 20): 2 | Total positive animals up to 21th day (B16F10 cells; 1 μg/animal daily s.c., days 10-21): 5 posit. | effect on tumor formation compared to the control group (B16F10 cells; 1 μg/animal daily subcutaneous injection, 21 days): delay or even inhibited the tumor formation | tumor positive animals, 25th day (B16F10 cells; observation after end of treatment, day 25): 9 | tumor positive animals, 29th day (B16F10 cells; observation after end of treatment, day 29): 9 | tumor positive animals, 35th day (B16F10 cells; observation after end of treatment, day 35): 12 | tumor positive animals, 48th day (B16F10 cells; observation after end of treatment, day 48): 12 | ratio of positives (B16F10 cells; up to day 21): 0.33
